In patent publication US9695197B2, “Glycosidase inhibitors and uses thereof” (Alectos Therapeutics Inc., priority 2012, dated 2017):

Key:
human O-GlcNAcase = human O-GlcNAcase (Homo sapiens (Human), UniProt O60502); test: Fluorescence-based assay for KI values for inhibition of O-GlcNAcase activity; type: biochemical; settings: purified human O-GlcNAcase 0.7 nM, 2 mM 4-methylumbelliferyl GlcNAc substrate, pH 7.0, Cheng-Prusoff; read-out: Fluorescence-based hOGA Ki
Procedure: Assay for Determination of KI Values for Inhibition of O-GlcNAcase Activity
Experimental Procedure for Kinetic Analyses:
Enzymatic reactions were carried out in a reaction containing 50 mM NaH2PO4, 100 mM NaCl and 0.1% BSA (pH 7.0) using 2 mM 4-Methylumbelliferyl N-acetyl-β-D-glucosaminide dihydrate (Sigma M2133) dissolved in ddH2O, as a substrate. The amount of purified human O-GlcNAcase enzyme used in the reaction was 0.7 nM. Test compound of varying concentrations was added to the enzyme prior to initiation of the reaction. The reaction was performed at room temperature in a 96-well plate and was initiated with the addition of substrate. […] The slope of product production was determined for each concentration of compound tested and plotted, using standard curve fitting algorithms for sigmoidal dose response curves. The values for a four parameter logistic curve fit of the data were determined.

O-GlcNAcase = O-GlcNAcase (Rattus norvegicus (Rat), UniProt Q8VIJ5); test: Cell-based ELISA for cellular activity of compounds that inhibit O-GlcNAcase (O-GlcNAcylated protein detected with RL-2 antibody); settings: rat PC-12 cells, treated 24 h, O-GlcNAcylated protein by RL-2 ELISA
Sequence of O-GlcNAcase (Q8VIJ5 whole entry): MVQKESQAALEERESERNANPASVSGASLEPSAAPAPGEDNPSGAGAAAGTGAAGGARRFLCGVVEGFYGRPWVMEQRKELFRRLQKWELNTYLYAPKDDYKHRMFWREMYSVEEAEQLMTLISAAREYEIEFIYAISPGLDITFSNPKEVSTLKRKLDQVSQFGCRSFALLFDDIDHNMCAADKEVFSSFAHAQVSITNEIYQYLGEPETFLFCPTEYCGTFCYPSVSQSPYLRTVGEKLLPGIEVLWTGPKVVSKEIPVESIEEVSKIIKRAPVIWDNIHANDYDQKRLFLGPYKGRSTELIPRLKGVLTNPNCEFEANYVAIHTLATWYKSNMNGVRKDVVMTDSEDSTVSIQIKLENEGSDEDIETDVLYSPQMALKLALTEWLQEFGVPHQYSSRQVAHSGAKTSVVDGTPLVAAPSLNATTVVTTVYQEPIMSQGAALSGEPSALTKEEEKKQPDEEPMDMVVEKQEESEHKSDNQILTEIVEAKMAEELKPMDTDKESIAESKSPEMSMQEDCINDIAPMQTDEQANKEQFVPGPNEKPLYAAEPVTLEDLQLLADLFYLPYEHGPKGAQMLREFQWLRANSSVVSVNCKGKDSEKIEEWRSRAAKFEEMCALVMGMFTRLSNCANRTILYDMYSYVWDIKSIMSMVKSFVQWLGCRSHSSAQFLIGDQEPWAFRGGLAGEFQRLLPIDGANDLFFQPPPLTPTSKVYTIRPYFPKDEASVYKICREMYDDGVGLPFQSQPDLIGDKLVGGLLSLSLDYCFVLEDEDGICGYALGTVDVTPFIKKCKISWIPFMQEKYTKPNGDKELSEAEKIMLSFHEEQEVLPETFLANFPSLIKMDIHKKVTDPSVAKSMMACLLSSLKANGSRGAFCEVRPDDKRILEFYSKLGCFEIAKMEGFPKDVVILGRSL
Description: Assay for Determination of Cellular Activity for Compounds that Inhibit O-GlcNAcase Activity
Inhibition of O-GlcNAcase, which removes O-GlcNAc from cellular proteins, results in an increase in the level of O-GlcNAcylated protein in cells. An increase in 0-GlcNAcylated protein can be measured by an antibody, such as RL-2, that binds to 0-GlcNAcylated protein. The amount of O-GlcNAcylated protein:RL2 antibody interaction can be measured by enzyme linked immunosorbant assay (ELISA) procedures.
A variety of tissue culture cell lines, expressing endogenous levels of O-GlcNAcase, can be utilized; examples include rat PC-12, and human U-87, or SK-N-SH cells. In this assay, rat PC-12 cells are plated in 96-well plates with approximately 10,000 cells/well. Compounds to be tested are dissolved in DMSO, either 2 or 10 mM stock solution, and then diluted with DMSO and water in a two-step process using a Tecan workstation. […] To prepare a cell lysate, the media from compound treated cells is removed, the cells are washed once with phosphate buffered saline (PBS) and then lysed for 5 minutes at room temperature in 50 μL of Phosphosafe reagent (Novagen Inc, Madison, Wis.) with protease inhibitors and PMSF. The cell lysate is collected and transferred to a new plate, which is then either coated to assay plates directly or frozen −80° C. until used in the ELISA procedure. If desired, the total protein concentration of samples is determined using 20 μL of the sample using the BCA method.
The ELISA portion of the assay is performed in a black Maxisorp 96-well plate that is coated overnight at 4° C. with 100 μL/well of the cell lysate (1:10 dilution of the lysate with PBS containing protease inhibitors, phosphatase inhibitors, and PMSF). The following day the wells are washed 3 times with 300 μL/well of Wash buffer (Tris-buffered saline with 0.1% Tween 20). The wells are blocked with 100 μL/well Blocking buffer (Tris buffered saline w/0.05% Tween 20 and 2.5% Bovine serum albumin). Each well is then washed two times with 300 μL/well of wash buffer. The anti O-GlcNAc antibody RL-2 (Abcam, Cambridge, Mass.), diluted 1:1000 in blocking buffer, is added at 100 μL/well. The plate is sealed and incubated at 37° C. for 2 h with gentle shaking. The wells are then washed 3-times with 300 μL/well wash buffer. […] The detection reaction is incubated for 15 minutes at room temperature and then read with excitation at 530 nm and emission at 590 nm.
The amount of O-GlcNAcylated protein, as detected by the ELISA assay, is plotted for each concentration of test compound using standard curve fitting algorithms for sigmoidal dose response curves. The values for a four parameter logistic curve fit of the data are determined, with the inflection point of the curve being the potency value for the test compound.

[1] = Apparent permeability (Papp), bi-directional transport in LLC-PK1 cells; type: in vitro ADME; settings: pig, 1 μM test compound, t=3 h, average of A to B and B to A
Procedure: Assay for Determination of Apparent Permeability (Papp)
Bi-directional transport was evaluated in LLC-PK1 cells in order to determine apparent permeability (Papp). LLC-PK1 cells can form a tight monolayer and therefore can be used to assess vectorial transport of compounds from basolateral to apical (B→A) and from apical to basolateral (A→B).
To determine Papp, LLC-PK1 cells were cultured in 96-well transwell culture plates (Millipore). Solutions containing the test compounds (1 μM) were prepared in Hank's Balanced Salt Solution with 10 mM HEPES. Substrate solution (150 μL) was added to either the apical (A) or the basolateral (B) compartment of the culture plate, and buffer (150 μL) was added to the compartment opposite to that containing the compound. At t=3 h, 50 μL samples were removed from both sides of monolayers dosed with test compound and placed in 96 well plates, scintillant (200 μL) or internal standard (100 μL labetolol 1 μM) was added to the samples and concentration was determined by liquid scintillation counting in a MicroBeta Wallac Trilux scintillation counter (Perkin Elmer Life Sciences, Boston, Mass.) or by LCMS/MS (Applied Biosystems SCIEX API 5000 triple quadruple mass spectrometer). […]
The apparent permeability, Papp, was calculated by the following formula for samples taken at t=3 h:
[formula] […] Papp was expressed as 10^−6 cm/s. […]

Sequence of human O-GlcNAcase (O60502 whole entry): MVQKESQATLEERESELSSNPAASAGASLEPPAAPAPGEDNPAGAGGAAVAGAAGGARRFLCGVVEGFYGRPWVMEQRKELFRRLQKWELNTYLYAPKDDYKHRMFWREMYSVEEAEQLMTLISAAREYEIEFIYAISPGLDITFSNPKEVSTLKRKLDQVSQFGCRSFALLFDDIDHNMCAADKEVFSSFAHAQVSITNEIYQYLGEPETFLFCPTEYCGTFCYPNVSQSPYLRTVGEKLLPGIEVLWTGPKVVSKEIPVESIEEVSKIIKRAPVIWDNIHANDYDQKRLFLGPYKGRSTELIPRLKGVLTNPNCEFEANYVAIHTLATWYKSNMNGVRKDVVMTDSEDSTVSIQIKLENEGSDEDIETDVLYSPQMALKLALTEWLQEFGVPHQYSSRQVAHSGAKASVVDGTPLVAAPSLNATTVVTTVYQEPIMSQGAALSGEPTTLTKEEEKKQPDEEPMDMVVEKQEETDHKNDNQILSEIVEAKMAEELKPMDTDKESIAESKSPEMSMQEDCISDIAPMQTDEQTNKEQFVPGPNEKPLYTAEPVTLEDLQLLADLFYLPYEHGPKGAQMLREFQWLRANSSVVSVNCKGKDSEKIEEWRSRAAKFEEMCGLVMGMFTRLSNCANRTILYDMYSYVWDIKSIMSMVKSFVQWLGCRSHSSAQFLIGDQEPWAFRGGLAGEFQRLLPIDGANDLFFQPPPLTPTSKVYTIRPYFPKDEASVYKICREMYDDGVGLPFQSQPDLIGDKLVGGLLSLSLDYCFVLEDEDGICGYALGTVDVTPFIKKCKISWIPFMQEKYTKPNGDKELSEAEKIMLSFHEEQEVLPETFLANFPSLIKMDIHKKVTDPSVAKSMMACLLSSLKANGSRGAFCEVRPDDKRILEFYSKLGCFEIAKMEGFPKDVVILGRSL

Structure (SMILES) | Ki (human O-GlcNAcase) | EC50 (O-GlcNAcase) | Papp at 3 h, 1 μM [1]
CCNC1=N[C@@H]2[C@@H](O)[C@H](O)[C@@H](CO)S[C@@H]2O1 [Example 1, (3aS,5R,6S,7R,7aR)-2-(ethylamino)-5-(hydroxymethyl)-5,6,7,7a-tetrahydro 3aH-thiopyrano[3,2-d]oxazole-6,7-diol] | 3 nM | – | –
CNC1=N[C@H]2[C@@H](S1)S[C@H](CO)[C@@H](O)[C@@H]2O [Example 4, (3aR,5R,6S,7R,7aR)-5-(hydroxymethyl)-2-(methylamino)-5,6,7,7a-tetrahydro-3aH-thiopyrano[3,2-d]thiazole-6,7-diol] | 0.11 nM | 3 nM | –
CCCNC1=N[C@H]2[C@@H](S1)S[C@H](CO)[C@@H](O)[C@@H]2O [Example 3, (3aR,5R,6S,7R,7aR)-5-(hydroxymethyl)-2-(propylamino)-5,6,7,7a-tetrahydro-3aH-thiopyrano[3,2-d]thiazole-6,7-diol] | 1.4 nM | 29 nM | –
CCNC1=N[C@H]2[C@@H](S1)S[C@H](C(F)F)[C@@H](O)[C@@H]2O [Example 5, (3aR,5S,6S,7R,7aR)-5-(difluoromethyl)-2-(ethylamino)-5,6,7,7a-tetrahydro-3aH-thiopyrano[3,2-d]thiazole-6,7-diol] | 22 nM | 349 nM | –

More lines, now with the values ahead:

Ki (human O-GlcNAcase) | EC50 (O-GlcNAcase) | Papp at 3 h, 1 μM [1] | Structure (SMILES)
– | – | < 1 ×10⁻⁶ cm/s | CCNC1=N[C@@H]2[C@@H](O)[C@H](O)[C@@H](CO)O[C@@H]2S1 [N/A, (3 aR,5R,6S,7R,7aR)-2-(ethylamino)-5-(hydroxymethyl)-5,6,7,7a-tetrahydro-3aH-pyrano[3,2-d]thiazole-6,7-diol, reference compound]
3 nM | 139 nM | 3.7 ×10⁻⁶ cm/s | CCNC1=N[C@H]2[C@@H](S1)S[C@H](CO)[C@@H](O)[C@@H]2O [Example 2, (3aR,5R,6S,7R,7aR)-2-(ethylamino)-5-(hydroxymethyl)-5,6,7,7a-tetrahydro-3aH-thiopyrano[3,2-d]thiazole-6,7-diol]
